Assay results published in EP0771560A1, “Use of 2- N-(1,2-benzoisothiazolyl-3(2H)one-1,1-dioxide ethyl 5-ethoxycarbonyl-2,4,6-trimethyl-1,4-dihydropiridine-3-carboxylate in the treatment of vascular disorders” (LABORATORIOS ALTER, S.A., priority 1995, dated 1997).
Read-outs that look alike come from different tables or passages of the source.

Experiments:
A10 cells = test: Inhibition of smooth muscle cell proliferation induced by bovine fetal serum (DNA synthesis by inclusion of BrdU); format: cell-based, rat; conditions: for inhibition at 50 µM / inhibition at 0.5 µM / inhibition at 5 µM: Rattus norvegicus; for % LABELED CELLS (Average ± S.D.): 10% bovine fetal serum, BrdU inclusion
Experimental: In these experiments a rat aorta smooth muscle cell line obtained from American Type Culture Collection (ATCC;A10 CRL 1476) was used. The cells were grown in a humidified atmosphere (37^º C; 95% air - 5% CO2) in Dulbecco's Modified Eagle Medium (DMEM) containing 10 % bovine fetal serum supplemented with 20 mM L-glutamine, 100 IU/ml penicillin, 100 µg/ml streptomycin and 0.25 µg/ml Amphotericin B (antibiotic-antimycotic solution, Gibco). The medium was replaced every two days.
To study the effect of PCA-4230 and of the other compounds, the DNA synthesis was measured by deterimining the inclusion of BrdU (an analogue of thymidine). The cells were isolated by trypsinization (trypsin 0.05% in EDTA 0.02%) and were seeded on glass cover-glasses in culture plates of 24 cups, at a density of 10^4 cells per cup. The cells were grown for 24 hours in DMEM with 10% BFS to allow adhesion of the cells to the slides. Afterwards, the cells were washed with serum-free DMEM containing 0.2% bovine serum albumin (BSA). They were incubated for 48 hours in the same medium to obtain quiescent cells. Afterwards, proliferation was induced by replacement of the medium by DMEM containing 10% bovine fetal serum, along with the vehicle or drugs at the suitable concentrations (0.5 to 50 µM for PCA-4230 and 50 µM for the rest of the compounds): The cells were grown in these conditions for 16 hours and, afterwards, BrdU was added and the culture was continued for two to three hours.

smooth muscle cells = conditions: from J. Bernhardt et al. (1993); cited from earlier work
[1] = tested on: atheromatous smooth muscle cells (ASA); test: Intracellular communication: transference of Lucifer Yellow dye after microinjection, atheromatous cells; format: cell-based, human; conditions: 0.4 µM (200 ng/ml for PCA-4230), incubated for 1 hour
From the text: (§1) Materials and Methods. Non-arteriosclerotic aorta smooth muscle cells (NASA), obtained from biopsies of organs to be used in heart transplants were used. The atheromatous smooth muscle cells (ASA) were obtained from biopsies obtained from arteriosclerotic arteries coming from aorta reconstruction. These biopsies were used as a source for cultures by explant, avoiding the use of enzymatic additives or detergents. The cells were left to grow until confluence, in M199 medium, supplemented with 5% BFS and antibiotics as in the previous example. The pureness of the cultures was determined by specific staining of the same with anti-α actin of smooth muscle cells.
(§2) Intracellular communication was studied by evaluating the transference of the fluorescent dye Lucifer Yellow from a single cell, in which it is inserted by microinjection, to the surrounding cells. The extent of this transference of dye was determined in 40 normal cells and in 100 atheromatous cells.
(§3) The same experiment was carried out with Verapamyl 0.4 µM, used as a standard drug with calcium antagonist activity and with 0.02% dimethylsulfoxide, the vehicle used in both cases.
(§4) The same study was repeated with the vehicle and with Verapamyl.

[2] = tested on: c-fos and c-jun proto-oncogenes; test: Expression of c-fos and c-jun proto-oncogenes (Northern hybridization of total RNA) in serum-stimulated cells; format: cell-based, rat; conditions: 5x10^-5M; cells stimulated for 30 minutes with 10% FCS; result in words
Experimental: The expression of the c-fos and c-jun proto-oncogenes was analyzed in cells fasted for 48h (cultured in serum-free DMEM, containing BSA 0.2%) and subsequently stimulated for 30 minutes with 10% FCS in the presence of absence of PCA-4230 (5x10^-5M). The total RNA was extracted from said cells using a previously described method (P Chomczynski and N. Sacchi (1987), Ann. Biochem. 162: 156-159).
Immediately, the extracted RNA (10 µg) was resolved by eletrophoresis in agarose gel (1.2% agarose + formaldehyde + formamide). The gel was then transferred to a nylon membrane and this was hybridized with specific probes for c-fos and c-jun (previously labeled with [^32P]-deoxy CTP). The membrane was finally exposed to a sensitive film (Kodak X-OMAT) for 8-17 hours at -70^º C. The level of expression of the oncogenes was brought back to normal by using a specific probe for β-actin.

gap junctions = test: Freeze Fracture Electron Microscopy (FFEM) of gap junction morphology; format: cell-based, human; conditions: cells treated with PCA-4230, result in words
From the text: Subsequently, the cells were fixed with glutaraldehyde and were studied by FFEM "Freeze Fracture Electron Microscopy" to determine the morphology of the gap junctions. The cells were frozen at -110^º C and were fractured. The breakage planes are the planes with less resistance that correspond to the surface of the inside membrane, between lipid bilayers.

[3] = tested on: Non-arteriosclerotic aorta smooth muscle cells (NASA); test: Intracellular communication: transference of Lucifer Yellow dye after microinjection, normal cells; format: cell-based, human; conditions: NORMAL (HEALTHY) cells, 0.4 µM, incubated for 1 hour
From the text: as §1, §2, §3, §4

[4] = Phase II Clinical Trial, Internal Report; result in words; cited from earlier work
[5] = Table Ib, 50,0 µM/L, two experiments in triplicate
[6] = Table Ib, 50,0 µM/L, versus vehicle
[7] = A10, Table Ib, 50,0 µM/L, versus vehicle, read-out: % INHIBITIÓN

Compound: CC(=O)Oc1ccccc1C(=O)O [ASPIRIN, aspirin, reference compound]
- inhibition at 50 µM (A10 cells; A10, read-out: % INHIBITIÓN): 25.5%
- % LABELED CELLS (Average ± S.D.) (A10 cells; [5]): 22.2 ± 1,8%
- % INHIBITIÓN (A10 cells; [6]): weak inhibitory effect
- aspirin concentrations at which inhibition of the proliferation of smooth muscle cells is achieved (smooth muscle cells): higher than 270 µM

Compound: CCOC(=O)C1=C(C)NC(C)=C(C(=O)OCCN2C(=O)c3ccccc3S2(=O)=O)C1C (stereo not drawn) [PCA-4230]
- N° CELLS LABELED BY INJECTION [1]: 2.42 ± 0.34
- cell proliferation induced by bovine fetal serum (A10 cells; 0.5 to 50 µM, result in words): inhibited cell proliferation induced by bovine fetal serum proportionally to the concentration
- inhibition at 0.5 µM (A10 cells; A10, Table Ia, 0,5 µM/L, versus vehicle, read-out: % INHIBITIÓN): 26.1%
- inhibition at 5 µM (A10 cells; A10, Table Ia, 5,0 µM/L, versus vehicle, read-out: % INHIBITIÓN): 53.2%
- inhibition at 50 µM (A10 cells; A10, Table Ia, 50,0 µM/L, versus vehicle, read-out: % INHIBITIÓN): 95.1%
- inhibition at 0.5 µM (A10 cells; A10, Table Ib, 0,5 µM/L, versus vehicle, read-out: % INHIBITIÓN): 25%
- inhibition at 5 µM (A10 cells; A10, Table Ib, 5,0 µM/L, versus vehicle, read-out: % INHIBITIÓN): 57.4%
- inhibition at 50 µM (A10 cells; [7]): 87.9%
- % LABELED CELLS (Average ± S.D.) (A10 cells; Table Ia, 0,5 µM/L, three experiments in triplicate): 15,0 ± 2,3%
- % LABELED CELLS (Average ± S.D.) (A10 cells; Table Ia, 5,0 µM/L, three experiments in triplicate): 9,5 ± 1,1%
- % LABELED CELLS (Average ± S.D.) (A10 cells; Table Ia, 50,0 µM/L, three experiments in triplicate): 1,0 ± 0,6%
- % LABELED CELLS (Average ± S.D.) (A10 cells; Table Ib, 0,5 µM/L, two experiments in triplicate): 22,3 ± 0,9%
- % LABELED CELLS (Average ± S.D.) (A10 cells; Table Ib, 5,0 µM/L, two experiments in triplicate): 12,7 ± 1,4%
- % LABELED CELLS (Average ± S.D.) (A10 cells; [5]): 3,6 ± 0,3%
- transcription of the c-fos and c-jun proto-oncogenes [2]: suppressive effect
- morphology, distribution and number of the gap junctions (gap junctions): No differences were observed
- N° CELLS LABELED BY INJECTION [3]: 2,40 ± 0,18
- hypolipidemic effect [4]: moderate hypolipidemic effect

Compound: Clc1ccccc1CN1CCc2sccc2C1 [THICLOPYD., Thiclopydine, reference compound]
- inhibition at 50 µM (A10 cells; [7]): 17.1%
- % LABELED CELLS (Average ± S.D.) (A10 cells; [5]): 24,7 ± 1,5%
- % INHIBITIÓN (A10 cells; [6]): weak inhibitory effect

Compound: COc1ccc(CCN(C)CCCC(C#N)(c2ccc(OC)c(OC)c2)C(C)C)cc1OC (stereo not drawn) [VERAPAMYL, Verapamyl, reference compound]
- N° CELLS LABELED BY INJECTION [1]: 7,20 ± 0,54
- N° CELLS LABELED BY INJECTION ([1]; listed as Verapamyl): did not show any significant effects
